Results on 24 molecules are retold here after US6821980B1, “Substituted 5-benzyl-2,4-diaminopyrimidines” (Basilea Pharmaceutica AG, priority 1999, dated 2004).

Values after ≈ are worked out from the molar mass of the structure shown. Where two headings read alike, the source gives them in different places.

The subject of experiment [1] is Streptococcus pneumoniae 1/1. Briefly: MIC against Streptococcus pneumoniae 1/1. Type of experiment: cell-based. The following applies: Streptococcus pneumoniae 1/1, trimethoprim- and penicillin-resistant, serotype 6, clinical isolate; for MIC: read-out: MIC Sp1/1.
In experiment [2] the target is T1, purified DHFR of strain Sp1/1 of Streptococcus pneumoniae (Streptococcus pneumoniae serotype 4, UniProt Q54801).
T1 sequence (Q54801 1-168 I100L): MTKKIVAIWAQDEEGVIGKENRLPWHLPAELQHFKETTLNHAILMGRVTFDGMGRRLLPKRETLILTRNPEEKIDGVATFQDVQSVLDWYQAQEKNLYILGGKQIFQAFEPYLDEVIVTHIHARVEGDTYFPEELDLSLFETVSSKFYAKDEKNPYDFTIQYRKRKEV
Type of experiment: biochemical.

Experiment [3] concerns the target purified DHFR of strain 157/4696 of Staphylococcus aureus (Staphylococcus aureus, UniProt P13955). Nature of the experiment: biochemical.
In experiment [4] the test system is Staphylococcus aureus 101. Briefly: MIC against Staphylococcus aureus 101. Type of experiment: cell-based. As to conditions: Staphylococcus aureus 101, MRSA- and trimethoprim-resistant, clinical isolate; for MIC: read-out: MIC Sa101.
Where [5] appears, read: Table 2, IC50 against purified DHFR of strain Sp1/1.
[6] abbreviates: Table 2, IC50 against purified DHFR of strain 157/4696 (highly trimethoprim-resistant; clinical isolate), read-out: DHFR Sa1.

Chain of purified DHFR of strain 157/4696 of Staphylococcus aureus (P13955 whole entry): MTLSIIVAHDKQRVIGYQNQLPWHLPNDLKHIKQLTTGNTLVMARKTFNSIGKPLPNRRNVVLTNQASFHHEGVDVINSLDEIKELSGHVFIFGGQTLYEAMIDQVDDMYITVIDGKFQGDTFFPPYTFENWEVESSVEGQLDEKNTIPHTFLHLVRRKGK

Take “5-[2-Cyclopropylmethyl-6-ethoxy-4′-(2-morpholin-4-yl-ethoxy)-biphenyl-4-ylmethyl]-pyrimidine-2,4-diamine [Example 56-]”: the “MIC Sp1/1” value in experiment [1] (Table 2) amounted to 2 µg/mL. The IC50 came to 32 nM in experiment [2] (setting [5]) and 800 nM in experiment [3] (setting [6]). Further, the “MIC Sa101” value in experiment [4] (Table 2) worked out at 8 µg/mL.

In the case of “5-[4′-Amino-2-[(2-tetrahydropyran-4-yl)-ethoxy]-6-ethoxy-4′-methyl-biphenyl-4-ylmethyl]-pyrimidine-2,4-diamine [Example 11-b]”, the “MIC Sp1/1” value in experiment [1] (Table 2) was found to be 1 µg/mL. The results for the IC50 in experiment [2] (setting [5]) and in experiment [3] (setting [6]) were 9.8 nM and 900 nM, respectively. Moreover, the “MIC Sa101” value in experiment [4] (Table 2) stood at 8 µg/mL.

For the molecule `CCOc1cc(Cc2cnc(N)nc2N)cc(OCC)c1-c1ccc([S+](C)[O-])cc1` (racemic) [Example 02-j, (RS)-5-(2,6-Diethoxy-4′-methanesulphinyl-biphenyl-4-ylmetyl)-pyrimidine-2,4-diamine], the MIC in experiment [1] (Table 2) stood at 4 µg/mL (≈ 9.38 µM); in experiment [4] (Table 2) it was 8 µg/mL (≈ 18.8 µM). For the same molecule, the IC50 worked out at 72 nM in experiment [2] (setting [5]) and 1700 nM in experiment [3].

On to `CCOc1cc(Cc2cnc(N)nc2N)cc(OCC)c1-c1ccc(N2CC(COC)OC2=O)cc1` (racemic) [Example 04-s, (RS)-3-[4′-(2,4-Diamino-pyrimidin-5-ylmethyl)-2′,6′-diethoxy-biphenyl-4-yl]-5-methoxymethyl-oxazolidin-2-one], for which the values for the MIC in experiment [1] (Table 2) and in experiment [4] (Table 2) were 4 µg/mL (≈ 8.1 µM) and 8 µg/mL (≈ 16.2 µM), respectively. The results for the IC50 in experiment [2] (setting [5]) and in experiment [3] were 61 nM and 1900 nM, respectively.

Regarding `CCOc1cc(Cc2cnc(N)nc2N)cc(OCCC2CCCCO2)c1-c1cccc(N)c1` (racemic) [Example 07-h, (RS)-5-[3′-Amino-6-ethoxy-2-[2-(tetrahydro-pyran-2-yl)-ethoxy]-biphenyl-4-ylmethyl]-2yrimidine-2,4-diamine], the MIC in experiment [1] (Table 2) turned out to be 2 µg/mL (≈ 4.31 µM); in experiment [4] (Table 2), 8 µg/mL (≈ 17.3 µM). In addition, the IC50 turned out to be 27 nM in experiment [2] (setting [5]) and 2200 nM in experiment [3].

For `CCOc1cc(Cc2cnc(N)nc2N)cc(OCCC2CCCCO2)c1-c1ccc(O)cc1` (racemic) [Example 08-t, (RS)-4′-(2,4-Diamino-pyrimidin-5-ylmethyl)-6′-ethoxy-2′-[2-(tetrahydro-pyran-2-yl)-ethoxy]-biphenyl-4-ol], the MIC in experiment [1] (Table 2) was 2 µg/mL (≈ 4.31 µM); in experiment [4] (Table 2), 8 µg/mL (≈ 17.2 µM). The IC50 in experiment [2] (setting [5]) turned out to be 25 nM; in experiment [3] it was 2400 nM.

Turning to `CCOc1cc(Cc2cnc(N)nc2N)cc(O[C@@H]2CCC[C@H]2CC#N)c1-c1ccc(O)cc1` (racemic) [Example 08-u, rac-(E)-{2-[4-(2,4-Diamino-pyrimidin-5-ylmethyl)-6-ethoxy-4′-hydroxy-biphenyl-2-yloxy]-cyclopentyl}-acetonitrile], the “MIC Sp1/1” value in experiment [1] (Table 2) turned out to be 4 µg/mL (≈ 8.7 µM). The IC50 in experiment [2] (setting [5]) is 150 nM; in experiment [3] (setting [6]), 1800 nM. In addition, the “MIC Sa101” value in experiment [4] (Table 2) was 8 µg/mL (≈ 17.4 µM).

For the molecule `CCOc1cc(Cc2cnc(N)nc2N)cc(OC2CCCC2COC)c1-c1ccc(O)cc1` (racemic) [Example 08-v, rac-(E)-5-[6-Ethoxy-4′-hydroxy-2-(2-methoxymethyl-cyclopentyloxy)-biphenyl-4-ylmethyl]-pyrimidine-2,4-diamine], the MIC in experiment [1] (Table 2) stood at 2 µg/mL (≈ 4.31 µM); in experiment [4] (Table 2) it was 8 µg/mL (≈ 17.2 µM). Moreover, the values for the IC50 in experiment [2] (setting [5]) and in experiment [3] were 82 nM and 1500 nM, respectively.

As to `CCOc1cc(Cc2cnc(N)nc2N)cc(O[C@@H]2CCC[C@H]2OC)c1-c1ccc(O)cc1` (relative stereo) [Example 08-y, 5-[6-Ethoxy-2((trans)-2-methoxy-cyclopentyloxy)-4′-hydroxy-biphenyl-4-ylmethtl]-pyrimidine-2,4-diamine], the MIC in experiment [1] (Table 2) was 4 µg/mL (≈ 8.88 µM); in experiment [4] (Table 2), 8 µg/mL (≈ 17.8 µM). Also, the IC50 in experiment [2] (setting [5]) is 95 nM; in experiment [3] it was 2700 nM.

`CCOc1cc(Cc2cnc(N)nc2N)cc(OCC)c1-n1cccc1` [Epiroprim, reference compound]: the MIC in experiment [1] (Table 1) was found to be 4 µg/mL (≈ 11.3 µM); in experiment [4] (Table 1), 16 µg/mL (≈ 45.3 µM). The “MIC Sp1/1” value in experiment [1] (Table 2) came out at 4 µg/mL (≈ 11.3 µM). Besides, in experiment [2], the IC50 was 190 nM. Moreover, the “MIC Sa101” value in experiment [4] (Table 2) was found to be 16 µg/mL (≈ 45.3 µM).

For `CCOc1cc(Cc2cnc(N)nc2N)cc(OCC)c1-c1ccc(OC)c(COC)c1` [Example 02-aa, 5-(2,6-Diethoxy-4′-methoxy-3′-methoxymethyl-biphenyl-4-ylmethyl)-pyrimidine-2,4-diamine], the MIC is 4 µg/mL (≈ 9.12 µM) in experiment [1] (Table 2) and 8 µg/mL (≈ 18.2 µM) in experiment [4] (Table 2). Further, the IC50 in experiment [2] (setting [5]) was 60 nM; in experiment [3], 2500 nM.

As for `CCOc1cc(Cc2cnc(N)nc2N)cc(OCC)c1-c1ccc(CO)s1` [Example 02-ab, [5-[4-(2,4-Diamino-pyrimidin-5-ylmethyl)-2,6-diethoxy-phenyl]-thiophen-2-yl]-methanol], the MIC in experiment [1] (Table 2) is 2 µg/mL (≈ 4.99 µM); in experiment [4] (Table 2) it was 4 µg/mL (≈ 9.99 µM). The IC50 was 38 nM in experiment [2] (setting [5]) and 880 nM in experiment [3].

Regarding `CCOc1cc(Cc2cnc(N)nc2N)cc(OCC)c1-c1ccc(CN2CCOCC2)s1` [Example 02-ac, 5-f3,5-Diethoxy-4-(5-morpholin-4-ylmethyl-thiophen-2-yl)-benzyl-pyrimidine-2,4-diamine], the MIC in experiment [1] (Table 2) is 2 µg/mL (≈ 4.26 µM); in experiment [4] (Table 2), 8 µg/mL (≈ 17 µM). Further, the IC50 worked out at 65 nM in experiment [2] (setting [5]) and 650 nM in experiment [3].

With `CCOc1cc(Cc2cnc(N)nc2N)cc(OCC)c1-c1ccc(C)c(N)c1` [Example 02-ad, 5-(3′-Amino-2,6-diethoxy-4′-methyl-biphenyl-4-ylmethyl)-pyrimidine-2,4-diamine], the MIC in experiment [1] (Table 2) turned out to be 4 µg/mL (≈ 10.2 µM); in experiment [4] (Table 2), 8 µg/mL (≈ 20.3 µM). Moreover, the IC50 is 85 nM in experiment [2] (setting [5]) and 2000 nM in experiment [3].

With `CCOc1cc(Cc2cnc(N)nc2N)cc(OCC)c1-c1ccc(O)c(F)c1` [Example 02-ae, 4′-(2,4-Diamino-pyrimidin-5-ylmethyl)-2′,6′-diethoxy-3-fluoro-biphenyl-4-ol], the figures for the MIC in experiment [1] (Table 2) and in experiment [4] (Table 2) were 8 µg/mL (≈ 20.1 µM) and 4 µg/mL (≈ 10 µM), respectively. Besides, the IC50 in experiment [2] (setting [5]) was 150 nM; in experiment [3], 1600 nM.

As to `CCOc1cc(Cc2cnc(N)nc2N)cc(OCC)c1-c1cccc(S(C)(=O)=O)c1` [Example 02-af, 5-(2,6-Diethoxy-3′-methylsulphonyl-biphenyl-4-ylmethyl)-pyrimidine-2,4-diamine], the MIC in experiment [1] (Table 2) and in experiment [4] (Table 2) was 8 µg/mL (≈ 18.1 µM) each time. Moreover, the IC50 in experiment [2] (setting [5]) came to 85 nM; in experiment [3], 1800 nM.

Turning to `CCOc1cc(Cc2cnc(N)nc2N)cc(OCC)c1-c1ccc(C=O)cc1` [Example 02-ag, 4′-(2,4-Diamino-pyrimidin-5-ylmetyl)-2′,6′-diethoxy-biphenyl-4-carbaldehyde], the MIC in experiment [1] (Table 2) and in experiment [4] (Table 2) was 8 µg/mL (≈ 20.4 µM) throughout. Also, the IC50 in experiment [2] (setting [5]) was 130 nM; in experiment [3] it was 2200 nM.

For the molecule `CCOc1cc(Cc2cnc(N)nc2N)cc(OCC)c1-c1ccc2[nH]ccc2c1` [Example 02-d, 5-(3,5-Diethoxy-4-(1H-indol-5-yl)-benzyl)-pyrimidine-2,4-diamine], the MIC in experiment [1] (Table 2) is 1 µg/mL (≈ 2.48 µM); in experiment [4] (Table 2), 8 µg/mL (≈ 19.8 µM). Also, the IC50 came out at 35 nM in experiment [2] (setting [5]) and 1400 nM in experiment [3].

Turning to `CCOc1cc(Cc2cnc(N)nc2N)cc(OCC)c1-c1ccc2cc[nH]c2c1` [Example 02-e, 5-[3,5-Diethoxy-4-(1H-indol-6-yl)-benzl]-pyrimidine-2,4-diamine], the MIC was found to be 2 µg/mL (≈ 4.96 µM) in experiment [1] (Table 2) and 4 µg/mL (≈ 9.91 µM) in experiment [4] (Table 2). Besides, the IC50 came to 22 nM in experiment [2] (setting [5]) and 1000 nM in experiment [3].

As for `CCOc1cc(Cc2cnc(N)nc2N)cc(OCC)c1-c1ccc2cc(O)ccc2c1` [Example 02-f, 6-[4-(2,4-Diamino-pyrimidin-5-ylmethyl)-2,6-diethoxy-phenyl]-naphthalen-2-ol], the MIC in experiment [1] (Table 2) and in experiment [4] (Table 2) was 4 µg/mL (≈ 9.29 µM) in each case. Also, the IC50 is 28 nM in experiment [2] (setting [5]) and 1700 nM in experiment [3].

As for `CCOc1cc(Cc2cnc(N)nc2N)cc(OCC)c1-c1ccc2[nH]ncc2c1` [Example 02-g, 5-[3,5-Diethoxy-4-(1H-indazol-5-yl)-benzyl]-pyrimidine-2,4-diamine], the MIC came out at 2 µg/mL (≈ 4.94 µM) in experiment [1] (Table 2) and 8 µg/mL (≈ 19.8 µM) in experiment [4] (Table 2). The IC50 was determined as 12 nM in experiment [2] (setting [5]) and 650 nM in experiment [3].

As for `CCOc1cc(Cc2cnc(N)nc2N)cc(OCC)c1-c1ccc(NC(C)=O)cc1` [Example 04-p, N-[4′-(2,4-Diamino-pyrimidin-5-ylmethl)-2′,6′-diethoxy-biphen-4-yl]-acetamide], the “MIC Sp1/1” value in experiment [1] (Table 2) was 2 µg/mL (≈ 4.74 µM). Besides, the “MIC Sa101” value in experiment [4] (Table 2) came to 8 µg/mL (≈ 19 µM).

As for `CCOc1cc(Cc2cnc(N)nc2N)cc(OCC2(CC#N)CC2)c1-c1ccc(OC)cc1` [Example 09-b], the values for the MIC in experiment [1] (Table 2) and in experiment [4] (Table 2) were 2 µg/mL (≈ 4.35 µM) and 8 µg/mL (≈ 17.4 µM), respectively. For the same molecule, the IC50 in experiment [3] came out at 1900 nM.

As to `COc1cc(Cc2cnc(N)nc2N)cc(OC)c1OC` [Trimethoprim, reference compound], the MIC in experiment [1] (Table 1) is above 32 µg/mL; in experiment [4] (Table 1), 32 µg/mL (≈ 110 µM). In experiment [1] (Table 2), the “MIC Sp1/1” value is above 32 µg/mL. For the same molecule, the “MIC Sa101” value in experiment [4] (Table 2) was 32 µg/mL (≈ 110 µM).
